Data set [1] can be described thus: Protein binding in rat plasma at 5 uM. In kind it is ADME, cell-free. The settings on record: read-out: PPB.
A short description of data set [2]: Protein binding in mouse plasma at 5 uM. In kind it is ADME, cell-free. The conditions noted are these: read-out: PPB.
Data set [3] can be described thus: Protein binding in human plasma at 5 uM. In kind it is ADME, cell-free. The settings on record: read-out: PPB.
A short description of data set [4]: Cmax in brown Norway rat retina at 10 mg/kg, po administered as single dose measured after 0.25 to 24 hrs by HPLC-MS/MS analysis. Further details: dose 10 mg/kg, route oral. In kind it is ADME, organism-based.
The species named for data set [5] is Mus musculus. Put plainly: animal or person. The conditions noted are these: C57BL/6, po, 4 h, read-out: INH.
Data set [6] concerns the target Complement factor B (Mus musculus, UniProt P04186). Put plainly: Inhibition of serine protease factor B in 50% mouse serum assessed as reduction in C3b deposition pre-incubated for 15 mins before activated zymosan A stimulation for 50 mins by ELISA. The format is cell-free.
Data set [7] in a line: AUC (0 to last) in brown Norway rat retina at 10 mg/kg, po administered as single dose measured after 0.25 to 24 hrs by HPLC-MS/MS analysis. Further details: dose 10 mg/kg, route oral, time 0 - last. The format is ADME, organism-based.
Data set [8] can be described thus: AUC (0 to last) in C57BL/6 mouse at 10 mg/kg, po after 7 hrs by HPLC-MS/MS analysis. The format is ADME, organism-based. Further details: dose 10 mg/kg, time 0 - last, route oral. The conditions noted are these: C57BL/6, mouse, in vivo.
For data set [9], the species on record is Mus musculus. Put plainly: animal or person. The conditions noted are these: C57BL/6, po, 4 h, read-out: INH. The source holds these as a separate data set.
The species named for data set [10] is Mus musculus. Put plainly: animal or person. The conditions noted are these: C57BL/6, po, 4 h, read-out: INH. This is another data set of the same source.
Data set [11] can be described thus: AUC (0 to last) in brown Norway rat plasma at 10 mg/kg, po administered as single dose measured after 0.25 to 24 hrs by HPLC-MS/MS analysis. In kind it is ADME, organism-based. Also on record: dose 10 mg/kg, time 0 - last, route oral.
A short description of data set [12]: Mean residence time in C57BL/6 mouse at 1 mg/kg, iv after 5 mins to 7 hrs by HPLC-MS/MS analysis. The format is ADME, organism-based. The conditions noted are these: mouse, in vivo.
Data set [13] is described as follows: Cmax in brown Norway rat posterior eye cup at 10 mg/kg, po administered as single dose measured after 0.25 to 24 hrs by HPLC-MS/MS analysis. The format is ADME, organism-based.
For data set [14], the species on record is Mus musculus. Put plainly: animal or person. The settings on record: C57BL/6, po, 8 h, read-out: INH.
The species entered for data set [15] is Mus musculus. Put plainly: animal or person. The conditions noted are these: C57BL/6, po, 4 h, read-out: INH. This is another data set of the same source.
Data set [16] in a line: Half life in C57BL/6 mouse at 1 mg/kg, iv after 5 mins to 7 hrs by HPLC-MS/MS analysis. The format is ADME, organism-based. The conditions noted are these: mouse, in vivo.
For data set [17], the species on record is Mus musculus. Put plainly: animal or person. The conditions noted are these: C57BL/6, po, 4 h, read-out: INH. The source holds these as a separate data set.
The nature of data set [18]: Volume of distribution at steady state in C57BL/6 mouse at 1 mg/kg, iv after 5 mins to 7 hrs by HPLC-MS/MS analysis. The settings on record: mouse, in vivo. In kind it is ADME, organism-based.
Data set [19] in a line: Cmax in brown Norway rat plasma at 10 mg/kg, po administered as single dose measured after 0.25 to 24 hrs by HPLC-MS/MS analysis. Also on record: dose 10 mg/kg, route oral. The format is ADME, organism-based.
Data set [20] in a line: Protein binding in dog plasma at 5 uM. The format is ADME, cell-free, Canis lupus familiaris. The conditions noted are these: read-out: PPB.
The species named for data set [21] is Mus musculus. Put plainly: animal or person. The settings on record: C57BL/6, po, 8 h, read-out: INH. This is another data set of the same source.
Data set [22] is described as follows: Oral bioavailability in C57BL/6 mouse at 10 mg/kg after 5 mins to 7 hrs by HPLC-MS/MS analysis. The format is ADME, organism-based. The settings on record: C57BL/6, mouse, in vivo.
Data set [23] is filed under the species Mus musculus. Put plainly: animal or person. The settings on record: C57BL/6, po, 4 h, read-out: INH. This is another data set of the same source.
Data set [24] in a line: AUC (0 to last) in brown Norway rat posterior eye cup at 10 mg/kg, po administered as single dose measured after 0.25 to 24 hrs by HPLC-MS/MS analysis. In kind it is ADME, organism-based.
Data set [25] can be described thus: Half life in beagle dog at 0.1 mg/kg, iv after 15 mins to 24 hrs by HPLC-MS/MS analysis. The format is ADME, organism-based, Canis lupus familiaris. The settings on record: in vivo.
A short description of data set [26]: Mean residence time in Wistar Han rat at 1 mg/kg, iv after 0.5 to 24 hrs by HPLC-MS/MS analysis. The format is ADME, organism-based. The settings on record: in vivo.
The nature of data set [27]: Volume of distribution at steady state in beagle dog at 0.1 mg/kg, iv after 15 mins to 24 hrs by HPLC-MS/MS analysis. The settings on record: in vivo, read-out: Vdss. The format is ADME, organism-based, Canis lupus familiaris.
Data set [28] in a line: Cmax/dose in beagle dog at 10 mg/kg, po after 15 mins to 24 hrs by HPLC-MS/MS analysis. In kind it is ADME, organism-based, Canis lupus familiaris. The conditions noted are these: in vivo.
The species entered for data set [29] is Canis familiaris. Put plainly: animal or person. The conditions noted are these: Canis lupus familiaris, beagle, po, 12 h, read-out: INH.
Data set [30] can be described thus: Mean residence time in beagle dog at 0.1 mg/kg, iv after 15 mins to 24 hrs by HPLC-MS/MS analysis. In kind it is ADME, organism-based, Canis lupus familiaris. The settings on record: in vivo.
Data set [31] can be described thus: AUC/dose in beagle dog at 10 mg/kg, po after 15 mins to 24 hrs by HPLC-MS/MS analysis. In kind it is ADME, organism-based, Canis lupus familiaris. The settings on record: in vivo.
Data set [32] can be described thus: Volume of distribution at steady state in Wistar Han rat at 1 mg/kg, iv after 0.5 to 24 hrs by HPLC-MS/MS analysis. The format is ADME, organism-based. The settings on record: in vivo, read-out: Vdss.
The nature of data set [33]: Tmax in Wistar Han rat at 30 mg/kg, po after 0.5 to 24 hrs by HPLC-MS/MS analysis. In kind it is ADME, organism-based. The settings on record: in vivo.
Data set [34] is described as follows: Tmax in beagle dog at 10 mg/kg, po after 15 mins to 24 hrs by HPLC-MS/MS analysis. The format is ADME, organism-based, Canis lupus familiaris. The settings on record: in vivo.
Data set [35] can be described thus: Half life in Wistar Han rat at 1 mg/kg, iv after 0.5 to 24 hrs by HPLC-MS/MS analysis. The format is ADME, organism-based. The settings on record: in vivo.
A short description of data set [36]: Oral bioavailability in beagle dog at 10 mg/kg after 15 mins to 24 hrs by HPLC-MS/MS analysis. In kind it is ADME, organism-based, Canis lupus familiaris. The conditions noted are these: in vivo.
Data set [37] in a line: Cmax/dose in Wistar Han rat at 30 mg/kg, po after 0.5 to 24 hrs by HPLC-MS/MS analysis. The conditions noted are these: in vivo. In kind it is ADME, organism-based.
A short description of data set [38]: Clearance in Wistar Han rat at 1 mg/kg, iv after 0.5 to 24 hrs by HPLC-MS/MS analysis. In kind it is ADME, organism-based. The settings on record: in vivo.
Data set [39] in a line: Clearance in beagle dog at 0.1 mg/kg, iv after 15 mins to 24 hrs by HPLC-MS/MS analysis. The format is ADME, organism-based, Canis lupus familiaris. The conditions noted are these: in vivo.
Data set [40] is filed under the species Canis familiaris. Put plainly: animal or person. The settings on record: Canis lupus familiaris, beagle, po, 6 h, read-out: INH.
A short description of data set [41]: AUC/dose in Wistar Han rat at 30 mg/kg, po after 0.5 to 24 hrs by HPLC-MS/MS analysis. The format is ADME, organism-based. The conditions noted are these: in vivo.
The nature of data set [42]: Oral bioavailability in Wistar Han rat at 30 mg/kg after 0.5 to 24 hrs by HPLC-MS/MS analysis. The settings on record: in vivo. The format is ADME, organism-based.
Data set [43] can be described thus: AUC/dose in Wistar Han rat at 1 mg/kg, iv after 0.5 to 24 hrs by HPLC-MS/MS analysis. The format is ADME, organism-based. The conditions noted are these: in vivo.
The nature of data set [44]: AUC/dose in beagle dog at 0.1 mg/kg, iv after 15 mins to 24 hrs by HPLC-MS/MS analysis. The settings on record: in vivo. The format is ADME, organism-based, Canis lupus familiaris.

Sequence of Complement factor B (P04186 whole entry): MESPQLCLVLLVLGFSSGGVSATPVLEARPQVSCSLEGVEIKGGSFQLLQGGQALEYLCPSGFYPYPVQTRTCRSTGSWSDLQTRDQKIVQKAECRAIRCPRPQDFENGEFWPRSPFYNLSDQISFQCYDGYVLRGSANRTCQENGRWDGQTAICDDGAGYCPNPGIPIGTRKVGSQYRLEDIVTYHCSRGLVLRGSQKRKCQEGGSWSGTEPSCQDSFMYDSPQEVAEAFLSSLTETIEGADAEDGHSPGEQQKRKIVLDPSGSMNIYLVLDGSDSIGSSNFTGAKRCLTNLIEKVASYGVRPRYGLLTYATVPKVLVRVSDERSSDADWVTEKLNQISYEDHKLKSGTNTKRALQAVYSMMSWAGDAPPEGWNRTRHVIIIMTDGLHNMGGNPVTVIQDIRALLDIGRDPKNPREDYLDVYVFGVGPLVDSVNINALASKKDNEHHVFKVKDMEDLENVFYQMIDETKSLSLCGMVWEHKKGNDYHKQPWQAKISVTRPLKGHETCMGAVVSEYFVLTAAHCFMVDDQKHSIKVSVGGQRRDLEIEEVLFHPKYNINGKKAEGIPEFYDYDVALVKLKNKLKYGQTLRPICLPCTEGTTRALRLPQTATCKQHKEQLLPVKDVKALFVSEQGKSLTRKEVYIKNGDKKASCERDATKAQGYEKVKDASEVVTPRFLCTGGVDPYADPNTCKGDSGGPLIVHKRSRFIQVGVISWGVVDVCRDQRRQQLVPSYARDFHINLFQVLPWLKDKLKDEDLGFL

`CCO[C@H]1CCN(Cc2c(OC)cc(C)c3[nH]ccc23)[C@H](c2ccc(C(=O)O)cc2)C1` [IPTACOPAN]: the fraction unbound at 5 µM in data set [1], in data set [2], in data set [3] and in [20] was 0.26 to 0.43 in each case. The Cmax in data set [4] stood at 0.15 µM; in data set [13] it was 2.5 µM; in [19], 5.1 µM. For the same compound, the inhibition in vivo at 10 mg/kg came to 72% in [5] and 60% in [15]. Besides, the concentration for half-maximal inhibition (IC50) in [6] was 0.11 µM. For the same compound, the AUC(0-t) in data set [7] amounted to 1.67 µM·h; in data set [11], 28.6 µM·h; in data set [24], 76.1 µM·h. For the same compound, the AUC(0-t) at 7 h in data set [8] is 7.6 µM·h. Besides, the inhibition in vivo at 20 mg/kg in data set [9] was 92%; in data set [10] it was 79%. The mean residence time (MRT) in [12] turned out to be 1.6 h. Also, the inhibition in vivo at 30 mg/kg turned out to be 83% in data set [14], 100% in [17], 83% in [21] and 100% in [23]. Besides, the t1/2 in data set [16] is 7.2 h. Besides, the Vdss in data set [18] is 6.6 L/kg. The same compound gave a bioavailability in [22] of 46%.

On to `CCO[C@H]1CCN(Cc2c(OC)cc(C)c3[nH]ccc23)[C@H](c2ccc(C(=O)O)cc2)C1.Cl`, for which the half-life was 5.6 h in [25] and 7 h in [35]. Besides, the MRT in [26] is 3.4 h; in data set [30], 5.5 h. The Vd in data set [27] worked out at 0.6 L/kg; in data set [32], 2.3 L/kg. The values for the Cmax/dose in [28] and in data set [37] were 2.2 µM and 0.41 µM, respectively. Further, the inhibition in vivo at 3 mg/kg in [29] was 55%; in data set [40], 100%. In addition, the AUC/dose in data set [31] was 12700 nM·h; in data set [41] it was 2100 nM·h; in data set [43] it was 5200 nM·h; in data set [44] it was 21000 nM·h. The time of peak concentration (Tmax) in [33] amounted to 2 h; in data set [34], 0.8 h. Further, the bioavailability came to 60% in [36] and 40% in data set [42]. The clearance in data set [38] stood at 0.48 L/h/kg; in data set [39] it was 0.12 L/h/kg.

The values above are taken from ChEMBL document CHEMBL4613250, “Discovery of 4-((2S,4S)-4-Ethoxy-1-((5-methoxy-7-methyl-1H-indol-4-yl)methyl)piperidin-2-yl)benzoic Acid (LNP023), a Factor B Inhibitor Specifically Designed To Be Applicable to Treating a Diverse Array of Complement Mediated Diseases” (J Med Chem, 2020).
